Read-outs that look alike come from different tables or passages of the source.
Key:
MCF-7 = assay: cells; conditions: Homo sapiens, MCF7, 48 h; for activity at 10 µM: read-out: Cell growth (%) MCF-7; for GI50: read-out: GI50 MCF-7, 48 h, average ± SEM; for CC50: read-out: LC50 MCF-7; for IC (TGI): read-out: TGI MCF-7
[1] = DPPH radical scavenging assay; conditions: for DPPH activity inhibition: 0.03 mg/mL, after 30 min
Protocol: The DPPH (1,1-diphenyl-2-picrylhydrazyl radical) assay measures the hydrogen donation ability of the antioxidant to convert the stable DPPH free radical into 1,1-diphenyl-2-(2,4,6-trinitrophenyl)-hydrazine. After radical reaction with the compounds, a decrease in the absorbance was detected at 517 nm, which is accompanied by a change of color from violet to light-yellow. The target compounds were dissolved in methanol to make 1 mg/mL stock solutions, which were diluted to five concentrations as test samples. Ascorbic acid was used as a standard, and the experiment was carried out on 96-well plates. The DPPH solution was prepared at a 100 µM concentration. For each test, 100 µL of DPPH solution was added to 100 µL of methanolic solution containing the tested derivatives, and the absorbance was determined at different time points. All the measurements were carried out in triplicate. Results were expressed as the percentage of the radical scavenged, calculated using the following formula:(1) % DPPH radical scavenging=Acontrol − Asample/Acontrol × 100 where Acontrol refers to the absorbance of the negative control, and Asample refers to the absorbance of the tested compounds. Results are expressed as a percentage of DPPH radical scavenged ± SEM.
. Ascorbic acid and Trolox were used as radical scavenger gold standards. […]. No correlation was found for either structure–radical scavenging activity or antitumor–radical scavenging activity, except for compound I.2f, one of the selected cytotoxic agents. To further confirm this antioxidant activity, three compounds (I.1e, I.1g and I.2i) were also evaluated as DPPH radical scavengers at a lower concentration of 0.003 mg/mL (Figure 3B).

HT-29 = assay: cells; conditions: Homo sapiens, HT-29, 48 h; for activity at 10 µM: read-out: Cell growth (%) HT-29; for GI50: read-out: GI50 HT-29; for CC50: read-out: LC50 HT-29; for IC (TGI): read-out: TGI HT-29
CCRF-CEM = assay: cells; conditions: Homo sapiens, 48 h; for activity at 10 µM: read-out: Cell growth (%) CCRF-CEM; for GI50: read-out: GI50 CCRF-CEM; for CC50: read-out: LC50 CCRF-CEM; for IC (TGI): read-out: TGI CCRF-CEM
PC-3 = assay: cells; assay type: cell-based; conditions: Homo sapiens; for LC50: read-out: LC50 PC-3; for GI50: read-out: GI50 PC-3; for IC (TGI): read-out: TGI PC-3
Protocol: (§1) Cell lines were provided by the European Collection of Cell Cultures (ECACC) or by the American Type Culture Collection (ATCC). Seven cell lines were used: MCF-7 (breast adenocarnicoma), 184B5 (nonmalignant, mammary gland derived), CCRF-CEM (lymphoblastic leukemia), HT-29 (colon carcinoma), HTB-54 (lung carcinoma), BEAS-2B (nonmalignant, derived from the bronchial epithelium) and PC-3 (prostate carcinoma). MCF-7, CCRF-CEM, HT-29, HTB-54, BEAS-2B and PC-3 cell lines were grown in RPMI medium (Gibco) supplemented with 10% fetal bovine serum (FBS; Gibco), 100 units/mL penicillin and […] streptomycin (Gibco). 184B5 cells were grown in DMEM/F12 medium supplemented with 5% FBS, 1 × ITS (Lonza), 100 nM hydrocortisone (Aldich), 2 mM sodium pyruvate (Lonza), 20 ng/mL EGF (Sigma-Aldrich), 0.3 nM trans-retinoic acid (Sigma-Aldrich), 100 units/mL penicillin and […] streptomycin. Cells were maintained at 37 °C and 5% CO2.
(§2) The cytotoxic effect of each substance was tested by the MTT method. Each compound was initially dissolved in DMSO at a concentration of 0.01 M, and serial dilutions were prepared with nonsupplemented medium. The cytotoxic effect of each compound was tested at 50 and 10 µM as a first screening. […]
(§3) A total of 1 × 10^4 cells/well in 96-well plates were treated with increasing concentrations of the corresponding compounds for 48 h at 37 °C in a humidified atmosphere containing 5% CO2. Then, cells were incubated with 50 µL of MTT (2 mg/mL stock) for 4 h. The medium was then removed by aspiration, and the formazan crystals were dissolved in […] of DMSO. […] Data were obtained from at least 3 independent experiments performed in quadruplicate. The standard error of the means (SEM) for the cytotoxic parameters was calculated applying the standard deviation formula to the mean values of each parameter for the three independent experiments performed.
(§4) . Cisplatin was used as a standard drug. […]. […] The presence of electron-withdrawing groups (-NO2, -CF3, -Cl) in the phenyl ring favored the cytotoxic activity in the amides, but in the phosphoramidates, the best results were obtained for aliphatic chains methoxy (II.1b, II.2b) and ethoxy (II.1d, II.2d). […].

HTB-54 = assay: cells; assay type: cell-based; conditions: Homo sapiens; for CC50: read-out: LC50 HTB54; for GI50: read-out: GI50 HTB54; for IC (TGI): read-out: TGI HTB54
Protocol: as §1, §2, §3, §4

184B5 = assay: MTT cytotoxicity in nonmalignant mammary gland derived cells; assay type: cell-based; conditions: for GI50 / IC (TGI): Homo sapiens, 184B5, nonmalignant cells, 48 h; for GI50: read-out: GI50 184B5; for IC (TGI): read-out: TGI 184B5; for Selectivity index (SI) = GI50 (184B5)/GI50 (MCF-7): breast
Protocol: as §1, §2, §3, §4
(§5) The lack of selectivity toward cancerous cells is one of the major issues during the discovery and development of new anticancer agents. Therefore, we evaluated the cytotoxic activity of our compounds against two cell lines derived from nonmalignant breast tissue (184B5) and no malignant bronchial epithelium (BEAS-2B) (Table 2). […].

[2] = as above; assay type: cell-based; conditions: human
Protocol: as §1, §2, §3, §4, §5

BEAS-2B = assay: MTT cytotoxicity in nonmalignant bronchial epithelium cells; assay type: cell-based; conditions: for GI50 / IC (TGI): Homo sapiens, BEAS-2B, nonmalignant cells, 48 h; for GI50: read-out: GI50 BEAS-2B; for IC (TGI): read-out: TGI BEAS-2B; for Selectivity index (SI) = GI50 (BEAS-2B)/GI50 (HTB-54): lung
Protocol: as §1, §2, §3, §4, §5

[3] = as above; assay type: cell-based; conditions: human; for LC50 (50% lethal concentration): nonmalignant cells, 48 h, read-out: LC50 BEAS-2B
Protocol: as §1, §2, §3, §4, §5

[4] = nonmalignant cells, 48 h, read-out: LC50 184B5

| SMILES | activity at 10 µM (MCF-7) [%] | activity at 10 µM (HT-29) [%] | activity at 10 µM (CCRF-CEM) [%] | GI50 (MCF-7) [µM] | CC50 (MCF-7) [µM] | IC (TGI) (MCF-7) [µM] | GI50 (PC-3; PC-3, 48 h, average ± SEM) [µM] | IC (TGI) (PC-3; PC-3, 48 h, average ± SEM) [µM] | GI50 (HTB-54; HTB-54, 48 h, average ± SEM) [µM] | IC (TGI) (HTB-54; HTB-54, 48 h, average ± SEM) [µM] | GI50 (184B5) [µM] | IC (TGI) (184B5) [µM] | Selectivity index (SI) = GI50 (184B5)/GI50 (MCF-7) (184B5) | GI50 (HT-29) [µM] | CC50 (HT-29) [µM] | IC (TGI) (HT-29) [µM] | GI50 (CCRF-CEM) [µM] | CC50 (CCRF-CEM) [µM] | IC (TGI) (CCRF-CEM) [µM] | GI50 (BEAS-2B) [µM] | further results |
| --- | --- | --- | --- | --- | --- | --- | --- | --- | --- | --- | --- | --- | --- | --- | --- | --- | --- | --- | --- | --- | --- |
| Cc1ccc(C(=O)Nc2ccc([Se][Se]c3ccc(NC(=O)c4ccc(C)cc4)cc3)cc2)cc1 [I.1g] | 57.5 | 109 | 105 |  |  |  |  |  |  |  |  |  |  |  |  |  |  |  |  |  | DPPH radical scavenging activity ([1]; 0.003 mg/mL): some moderate effect was observed; DPPH activity inhibition [1]: greater than 35% |
| O=C(Nc1ccc([Se][Se]c2ccc(NC(=O)c3ccco3)cc2)cc1)c1ccco1 [I.1h] | 63.5 | 62.1 | 34.1 | 18 ± 2.3 | 76.6 ± 2.5 | 47.3 ± 2.4 | 2.3 ± 0.3 | 27.6 ± 2.8 | 20.8 ± 2.5 | 48.6 ± 1.8 | 19.9 | 47.2 | 1.11 | 17.4 ± 1.9 | 74.3 ± 0.7 | 45.8 ± 1.2 | 4.1 ± 2.4 | 72.8 ± 2.9 | 36.1 ± 1.4 | 10.6 | LC50 (PC-3; PC-3, 48 h): 65.6 ± 4.1 µM; CC50 (HTB-54; HTB-54, 48 h): 76.3 ± 3.6 µM; LC50 (50% lethal concentration) at 48 h [2]: 74.4 µM; IC (TGI) (BEAS-2B): 40.6 µM; Selectivity index (SI) = GI50 (BEAS-2B)/GI50 (HTB-54) (BEAS-2B): 0.51; LC50 (50% lethal concentration) at 48 h [3]: 70.7 µM |
| CSc1ccc(C(=O)Nc2ccc([Se][Se]c3ccc(NC(=O)c4ccc(SC)cc4)cc3)cc2)cc1 [I.1n] | 64 | 50.6 | 72.1 |  |  |  |  |  |  |  |  |  |  |  |  |  |  |  |  |  | DPPH activity inhibition [1]: greater than 35% |
| N#C[Se]c1ccc(NC(=O)c2ccco2)cc1 [I.2h] | 41.6 | 46.7 | 47.1 | 7.4 ± 1.9 | 94.9 ± 4.7 | 50.4 ± 1.3 | > 100 | > 100 | > 100 | > 100 | 36.1 | > 100 | 5.66 | 42.7 ± 1.2 | > 100 | > 100 | 21.8 ± 3.1 | > 100 | > 100 | 8.47 | LC50 (PC-3; PC-3, 48 h, average ± SEM): > 100 µM; CC50 (HTB-54; HTB-54, 48 h, average ± SEM): > 100 µM; LC50 (50% lethal concentration) [2, 4]: > 100 µM; IC (TGI) (BEAS-2B): 67.3 µM; LC50 (50% lethal concentration) [3]: > 100 µM |
| COP(=O)(Nc1ccc([Se][Se]c2ccc(NP(=O)(OC)OC)cc2)cc1)OC [II.1b] | -13.9 | 70.7 | -74.1 | 4.3 ± 0.6 | 56.9 ± 5.4 | 8.8 ± 0.1 | 17.1 ± 1.7 | 46.9 ± 2.3 | 7.2 ± 3.2 | 37.1 ± 3.2 | 5.75 | 7.2 | 1.36 | 20 ± 3.1 | 74.9 ± 0.6 | 47.4 ± 2 | 2 ± 0.1 | 8 ± 2.8 | 3.9 ± 0.4 | 6.48 | LC50 (PC-3; PC-3, 48 h, average ± SEM): 76.6 ± 2.5 µM; CC50 (HTB-54; HTB-54, 48 h, average ± SEM): 76 ± 4.2 µM; CC50 [2, 4]: 8.65 µM; IC (TGI) (BEAS-2B): 41.3 µM; Selectivity index (SI) = GI50 (BEAS-2B)/GI50 (HTB-54) (BEAS-2B): 0.84; LC50 (50% lethal concentration) [3]: > 100 µM |
| CCOP(=O)(Nc1ccc([Se][Se]c2ccc(NP(=O)(OCC)OCC)cc2)cc1)OCC [II.1d] | -57.5 | -69.8 | -86.7 | 2.3 ± 0.2 | 8.8 ± 0.8 | 4.2 ± 0.3 | 6.4 ± 0.2 | 8.6 ± 0.2 | 5.9 ± 0.3 | 7.7 ± 0.2 | 5.45 | 7.01 | 2.38 | 1.7 ± 0.1 | 4.3 ± 0.1 | 3 ± 0.1 | 0.4 ± 0.2 | 3.4 ± 0.2 | 1.7 ± 0.2 | 5.43 | LC50 (PC-3; PC-3, 48 h, average ± SEM): 35.1 ± 4.9 µM; CC50 (HTB-54; HTB-54, 48 h, average ± SEM): 9.4 ± 0.1 µM; CC50 [2, 4]: 8.58 µM; IC (TGI) (BEAS-2B): 6.98 µM; Selectivity index (SI) = GI50 (BEAS-2B)/GI50 (HTB-54) (BEAS-2B): 0.92; LC50 (50% lethal concentration) [3]: 8.54 µM |

Reference: PMC8069832, “New Amides and Phosphoramidates Containing Selenium: Studies on Their Cytotoxicity and Antioxidant Activities in Breast Cancer” (Antioxidants, 2021)
